# Experimental data: patent US12433863B2, “Pharmaceutical compositions and uses directed to lysosomal storage disorders” (INTRABIO LIMITED, priority 2016, dated 2025)
# Legend:
# [1] = tested on: Tay-Sachs disease patient fibroblasts; experiment: Glycosphingolipid (GSL) levels by HPLC in Tay-Sachs disease patient fibroblasts; assay type: cell-based, human; conditions: 1 mM for 6 days, p<0.05
# [2] = tested on: Sandhoff disease patient fibroblasts; experiment: Glycosphingolipid (GSL) levels by HPLC in Sandhoff disease patient fibroblasts; assay type: cell-based, human; conditions: 1 mM for 6 days
# [3] = tested on: Npc1^−/− (BALB/cNctr-Npc1^m1N/J) mouse; experiment: In vivo mouse study in Npc1-/- mouse model of NPC (coat, weight, CatWalk gait, open field motor function, lifespan)
# Protocol: Separate groups of Npc1^-/- and Npc1^+/+ mice were left untreated, as controls. […] Animals were weighed twice a week. Weights were averaged (mean) across all mice in each group and compared. Gait analysis was performed on mice at eight weeks of age using a CatWalk® 15.0 system according to manufacturer's instructions (Noldus, Nottingham, UK). Five runs were recorded per animal. CatWalk® parameters measured were: • 1. Stand Mean: average duration (s) of paws in contact with glass plate; • 2. Step Cycle: duration (s) between two consecutive contacts of the same paw; • 3. Duty Cycle: percentage of time paws in contact with plate compared with time to complete a step cycle; • 4. Step Sequence (AB): percentage of time spent walking in LF-RH-RF-LH alternating pattern (LF: left front; RH: right hind; RF: right front; LH left hind); • 5. Cadence: step per seconds in a trial; • 6. Diagonal Support: percentage of time with simultaneous contact of diagonal paws with the glass plate (RF&LH or RH&LF). Motor Function Analysis Motor function analysis was performed on mice at eight and nine weeks of age using an Open Field Activity Monitor according to manufacturer's instructions (Linton Instruments, Amlogger Software). Each mouse was placed in a plastic cage with bedding and analysed for five minutes. Rears were counted manually. Motor function parameters measured were: • 1. Centre Rearing: mice rearing on hind legs unsupported; • 2. Rearing: mice rearing on hind legs with and without the support of cage walls; • 3. Activity: regular movement of the animal including walks; • 4. Front to Back (FR) count: movement of the animal from front to back of the cage; • 5. Active Time: duration (s/min) of activeness regardless of movement; • 6. Mobile Time: duration (s/min) of mobility; • 7. Rearing Time: duration of any rearing.
# patients with ataxia = conditions: Becker-Bense et al. 2015; cited from earlier work
# [4] = tested on: patient genetically diagnosed with GM1 Gangliosidosis; experiment: Case study of a GM1 Gangliosidosis patient (SARA, mRDS, EQ-5D-5L); assay type: in vivo, human; conditions: after one month
# Text: The patient in this case study was a person who was genetically diagnosed with GM1 Gangliosidosis and who was not able to stand or walk by themself, was very limited in daily activities (eating, washing, dressing themself was not possible), and had ocular movement disorder, anarthria, and distinct problems in cognitive function and concentration (neurological examination was not possible).
# Before treatment was commenced, examination of the patient indicated a Scale for Assessment and Rating of Ataxia (SARA) score of 35/40, a mRDS score of 15, and a EQ-5D-5L visual scale of 50.
# The patient was started on therapy with acetyl-leucine at a dose of 1.5 g per day for the first week, followed by a dose of 3 g per day for the second week onwards.
# [5] = tested on: patients with Niemann-Pick Type C (NPC); conditions: one-month study, 12 NPC patients; Bremova et al. 2015; cited from earlier work
# [6] = tested on: patients with cerebellar ataxia; conditions: cited from earlier work
compound,measurement,setting,value
CC(=O)NC(CC(C)C)C(=O)O (racemic) [acetyl-DL-leucine],GSL levels (GSL storage),[1],decrease was statistically significant
same,GSL levels (GSL storage),[2],trend towards decreased GSL levels
same,Delay until display of disease symptoms versus untreated Npc1-/- mice,[3]; Npc1-/- mice treated from weaning,two
same,Delay of weight loss symptoms compared to the untreated group,"[3]; Npc1-/- mice, 0.1 g/kg from weaning",two
same,Gait properties (CatWalk) compared to untreated littermates,"[3]; Npc1-/- mice, 0.1 g/kg from weaning, eight weeks of age",significantly improved gait
same,Motor function properties (Open Field Activity Monitor) compared to untreated littermates,"[3]; Npc1-/- mice, 0.1 g/kg from weaning, nine weeks of age",significantly improved motor function
same,Coat condition,"[3]; Npc1-/- mice, 0.1 g/kg in chow from weaning, nine weeks of age",smooth and glossy coat
same,Lifespan,"[3]; Npc1-/- mouse, 0.1 g/kg from 3 weeks of age",small but statistically significant increase in lifespan
same,Brain metabolism by PET,patients with ataxia,increased metabolism in the midbrain and lower brainstem in responders
same,SARA,[4]; 1.5 g then 3 g per day,35/40
same,Clinical re-examination findings,[4],"stable general condition, increased gait (more fluent), and stable stance in natural position"
same,mRDS,[4],16
same,Ataxia symptoms,[5],symptomatic improvement of ataxia
same,"Benefit in cerebellar ataxia, another case series",[6]; Pelz et al. 2015,did not find benefit
same,"Temporal gait variability, quantitative gait analysis",[6]; Schniepp et al. 2015,improved temporal gait variability
same,"Cerebellar ataxia symptoms, case series",[6]; Strupp et al. 2013,symptomatic improvement of cerebellar ataxia
